Source: patent US12037419B2 (The Feinstein Institutes for Medical Research, priority 2016, dated 2024)

Key:
Type in all cases: cell-based
[1] = system: human monocytes; assay: Monocyte to DC differentiation with GM-CSF and IL-4 (flow cytometry); settings: compared with C1q alone
[2] = system: allogeneic primary human CD4 T cells; assay: Allogeneic mixed lymphocyte reaction; settings: HMGB1 3 μg/ml, C1q 25 μg/ml
Description: Allogeneic CD4 T lymphocytes were isolated from blood using the Naïve CD4+ T cell isolation kit II (Miltenyi Biotec.) following the manufacturer's protocol. Cells were analyzed by flow cytometry (>90%). T cells were labeled with 5 μM Cell Trace Violet cell proliferation kit (Thermo Fisher Scientific), added to mono/macrophages at a density of 2×10^5 cells/well (a 1:2 ratio) in the presence of 1 μg/ml anti-CD3 (OKT3, eBioscience). Control cultures contained medium only or T cells or mono/macrophages alone. After 4 days, cells were stained with FITC-anti-CD4, PerCPCy 5.5-CD14, PE-LAIR-1 and fixable viability dyes (FVD, eBioscience) for 20 min at room temperature and subsequently washed and fixed. Live cells (FVD-negative cells) were then gated on CD4-positive, and cell trace violet was assessed by flow cytometry on a BD LSR II (BD Biosciences). Cell proliferation was analyzed as described (51). The % divided cells was defined as the probability that a cell has divided at least once from the original population. The division index was defined as the average number of cell divisions that a cell in the original population has undergone.

[3] = target: T1, LAIR-1 and RAGE in lipid rafts (Homo sapiens, UniProt Q15109+Q6GTX8); assay: Lipid raft fractionation and Western blot; settings: in the presence of HMGB1 and C1q
T1 construct: endogenous in cells; host or cells: monocytes
T1 sequence (Q6GTX8 22-287): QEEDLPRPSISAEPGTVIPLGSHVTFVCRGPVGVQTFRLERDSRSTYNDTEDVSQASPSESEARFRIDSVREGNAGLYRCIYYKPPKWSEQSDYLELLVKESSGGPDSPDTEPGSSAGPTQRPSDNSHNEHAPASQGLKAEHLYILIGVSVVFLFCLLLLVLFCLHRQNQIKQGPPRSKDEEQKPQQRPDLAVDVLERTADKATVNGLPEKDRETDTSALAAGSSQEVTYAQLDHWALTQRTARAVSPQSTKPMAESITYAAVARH
T1 sequence (Q15109 23-404): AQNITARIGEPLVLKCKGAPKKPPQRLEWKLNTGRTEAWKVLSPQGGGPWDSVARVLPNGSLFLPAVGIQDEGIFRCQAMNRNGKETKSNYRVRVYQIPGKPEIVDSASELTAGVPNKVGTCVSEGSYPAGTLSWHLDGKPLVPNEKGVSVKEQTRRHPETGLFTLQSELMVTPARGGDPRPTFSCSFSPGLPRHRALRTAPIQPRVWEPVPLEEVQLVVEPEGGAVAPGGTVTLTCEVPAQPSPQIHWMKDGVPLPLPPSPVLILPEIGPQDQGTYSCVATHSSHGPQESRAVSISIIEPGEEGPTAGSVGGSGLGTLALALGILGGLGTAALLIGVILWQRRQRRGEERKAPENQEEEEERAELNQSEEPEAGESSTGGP
Description: Lipid raft fractionation: Lipid rafts were prepared as described (50). Monocytes (5×10^6) were lysed in 1 ml THE buffer (25 mM Tris, 150 mM NaCl, 5 mM EDTA) containing 1% Triton and incubated for 30 min on ice. Lysates were homogenized with 10 strokes of a dounce homogenizer, mixed with 2 ml of 80% sucrose in TNE buffer, and transferred to a centrifuge tube. Samples were overlaid with 4 ml of 30% sucrose and 2 ml of 5% sucrose in TNE. After centrifugation for 16 h at 180,000 g in a Beckman Coulter SW41Ti rotor, 0.8 ml fractions were collected from the top of the gradient. Each fraction was subjected to slot blot analysis to identify GM1-enriched rafts fraction using FITC-conjugated cholera toxin-B subunit (Sigma). Lipid raft fractions were precipitated with TCA and washed with 70% EtOH, then subjected to slot blot analysis or Western blot.

C1q: C1q purified from pooled normal human sera, obtained from Complement Technology
expression of CD14 and LAIR-1 after GM-CSF and IL-4, pre-exposure to both HMGB1 and C1q [1]: significantly higher | stimulation of T cells by monocytes exposed to both HMGB1 and C1q [2]: poor stimulators of T cells | localization of LAIR-1 and RAGE in lipid rafts [3]: LAIR-1 migrated to lipid rafts where LAIR-1 colocalized with RAGE
